The text below walks through data of patent US20240270762A1, “PENICILLIN-BINDING PROTEIN INHIBITORS” (priority 2021, published 2024).

One test has as its system N. gonorrhoeae WHO G. Nature of the test: Liquid broth MIC in Fastidious broth. Particulars: Neisseria gonorrhoeae, read-out: Minimum Inhibitory Concentration (MIC), N. gonorrhoeae WHO G.
In a further test the test system is P. aeruginosa ATCC 27853. Briefly: microbe, parasite or virus in culture. The test is classed as cell-based. The following applies: Pseudomonas aeruginosa, ATCC27853, read-out: Minimum inhibitory concentration, P. aeruginosa ATCC 27853.
The subject of test [1] is B. thailandensis ATCC 700388. Nature of the test: microbe, parasite or virus in culture. Format: cell-based. The following applies: Burkholderia thailandensis, ATCC700388, read-out: Minimum inhibitory concentration (MIC), B. thailandensis ATCC 700388.
For a further test, the system named is N. gonorrhoeae WHO Z. Briefly: Liquid broth MIC in Fastidious broth. The following applies: Neisseria gonorrhoeae, read-out: Minimum Inhibitory Concentration (MIC), N. gonorrhoeae WHO Z.
Test [2] relates to N. gonorrhoeae ATCC 49226. Nature of the test: Liquid broth MIC in Fastidious broth. The following applies: Neisseria gonorrhoeae, ATCC49226, read-out: Minimum Inhibitory Concentration (MIC), N. gonorrhoeae ATCC 49226.
In the next test the test system is N. gonorrhoeae MS11. Nature of the test: Liquid broth MIC in Fastidious broth. Particulars: Neisseria gonorrhoeae, MS11, read-out: Minimum Inhibitory Concentration (MIC), N. gonorrhoeae MS11.
In test [3] the target is T1, PBP3 from Escherichia coli (K-12) (Escherichia coli, UniProt P0AD68).
T1 construct: made in house
T1 sequence (P0AD68 1-577): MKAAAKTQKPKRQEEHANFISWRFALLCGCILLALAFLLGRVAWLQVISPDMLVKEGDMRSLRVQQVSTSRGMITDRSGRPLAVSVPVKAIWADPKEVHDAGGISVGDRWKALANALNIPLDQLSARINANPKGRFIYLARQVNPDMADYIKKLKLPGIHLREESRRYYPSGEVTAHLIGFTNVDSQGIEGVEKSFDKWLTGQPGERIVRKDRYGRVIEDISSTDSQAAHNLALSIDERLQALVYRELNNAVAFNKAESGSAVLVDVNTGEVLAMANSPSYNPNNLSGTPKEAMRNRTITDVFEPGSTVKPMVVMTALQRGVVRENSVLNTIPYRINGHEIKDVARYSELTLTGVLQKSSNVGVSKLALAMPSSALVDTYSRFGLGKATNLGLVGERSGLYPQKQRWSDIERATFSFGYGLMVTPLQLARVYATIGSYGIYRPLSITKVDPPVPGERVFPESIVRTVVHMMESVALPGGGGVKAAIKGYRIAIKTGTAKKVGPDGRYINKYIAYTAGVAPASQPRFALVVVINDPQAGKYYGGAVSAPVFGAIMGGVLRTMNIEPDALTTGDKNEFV
Briefly: Bocillin-FL fluorescence polarization competition binding, E. coli PBP3. The method in brief:
(§1)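 Purified PBP was preincubated with inhibitor (E. coli PBP3 1.5 μM, 30 min; P. aeruginosa PBP3 0.75 μM, A. baumannii PBP3 0.2 μM and PBP1a 1 μM, 15 min), then Bocillin-FL (0.1 μM; 0.05 μM for PBP1a) added and FP read up to 60 min. EC50 = 50% loss of bound probe.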
A general note: In fluorescence polarisation assays a small probe gives low polarisation when free and higher when bound to something large.

Another test has as its system N. gonorrhoeae CDC-0197. Briefly: Liquid broth MIC in Fastidious broth. The following applies: Neisseria gonorrhoeae, CDC0197, read-out: Minimum Inhibitory Concentration (MIC), N. gonorrhoeae CDC-0197.
The test system of test [4] is B. humptydooensis ATCC BAA-2767. Briefly: microbe, parasite or virus in culture. Format: cell-based. The following applies: Burkholderia humptydooensis, ATCCBAA2767, read-out: Minimum inhibitory concentration (MIC), B. humptydooensis ATCC BAA-2767.
In test [5] the target is T2, PBP3 from Pseudomonas aeruginosa (PAO1) (Pseudomonas aeruginosa, UniProt G3XD46).
T2 construct: made in house
T2 sequence (G3XD46 whole entry): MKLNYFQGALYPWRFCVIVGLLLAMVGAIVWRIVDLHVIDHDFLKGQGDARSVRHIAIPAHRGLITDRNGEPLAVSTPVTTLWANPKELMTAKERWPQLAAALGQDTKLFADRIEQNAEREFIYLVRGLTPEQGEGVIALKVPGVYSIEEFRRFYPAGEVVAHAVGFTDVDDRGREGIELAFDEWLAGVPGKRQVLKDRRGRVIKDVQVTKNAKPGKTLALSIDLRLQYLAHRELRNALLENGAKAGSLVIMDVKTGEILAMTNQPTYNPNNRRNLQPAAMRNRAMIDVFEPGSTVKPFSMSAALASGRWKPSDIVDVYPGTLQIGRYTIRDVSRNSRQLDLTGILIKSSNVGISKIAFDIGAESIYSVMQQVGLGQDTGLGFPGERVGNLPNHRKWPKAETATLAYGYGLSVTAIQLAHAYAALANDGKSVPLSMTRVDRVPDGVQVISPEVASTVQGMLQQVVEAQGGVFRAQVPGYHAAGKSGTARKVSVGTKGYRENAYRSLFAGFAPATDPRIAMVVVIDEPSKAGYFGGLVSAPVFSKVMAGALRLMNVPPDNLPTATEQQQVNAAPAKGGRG
Briefly: Bocillin-FL fluorescence polarization competition binding, P. aeruginosa PBP3. Particulars: Binding affinity to P. aeruginosa PBP3; fluorescence polarization competition binding assay using Bocillin-FL; read-out: P. aeruginosa PBP3 Potency. In outline: as §1

The test system of the next test is A. baumannii CDC-0045. Nature of the test: microbe, parasite or virus in culture. Format: cell-based. The following applies: Acinetobacter baumannii, CDC0045, read-out: MIC, A. baumannii CDC-0045.
For a further test, the system named is N. gonorrhoeae FA1090. Briefly: Liquid broth MIC in Fastidious broth. Particulars: Neisseria gonorrhoeae, FA1090, read-out: Minimum Inhibitory Concentration (MIC), N. gonorrhoeae FA 1090.
The next test relates to A. baumannii ATCC 19606. Briefly: microbe, parasite or virus in culture. Format: cell-based. Particulars: Acinetobacter baumannii, ATCC19606, read-out: MIC, A. baumannii ATCC 19606.
Test [6] has as its system P. aeruginosa (ΔmexAB-oprM). Nature of the test: Broth microdilution MIC in iron-depleted CAMHB (IDM). Format: cell-based. The following applies: Pseudomonas aeruginosa; iron-depleted CAMHB (IDM); […]; read-out: Minimum inhibitory concentration, P. aeruginosa ΔmexAB-oprM. (In general: Broth dilution looks for growth in wells or tubes with falling amounts of substance.)
The subject of a further test is N. gonorrhoeae WHO L. Briefly: Liquid broth MIC in Fastidious broth. Particulars: Neisseria gonorrhoeae, read-out: Minimum Inhibitory Concentration (MIC), N. gonorrhoeae WHO L.

Converted amounts (≈) assume the structure as drawn. Some results are limits rather than exact numbers.

Procedure for N. gonorrhoeae FA1090: Additional antibacterial testing of the series was performed in 8 reference strains of N. gonorrhoeae (ATCC 49226, FA1090, MS 11, WHO G, WHO L, WHO M, WHO K, WHO X, WHO Z, WHO Q, CDC-0197). ATCC 49226, FA1090, MS11, WHO G, WHO L, and WHO M produce wild type or wild-type like PBP2. WHO K, WHO X, WHO Z, WHO Q, and CDC-0197 produce mosaic PBP2. Liquid broth-based assays were used for antibacterial testing of PBP inhibitors in Neisseria gonorrhoeae. Briefly, cryo-preserved bacterial cultures of clinical strains were streaked for isolation on Chocolate Agar (72 g/L (2×) GC Agar Base (BD #228950) and 2% (2×) Hemoglobin was autoclaved at 121° C. for 20 minutes to sterilize. Once cooled to ˜50° C. the 2×GC Agar Base and 2× Hemoglobin solutions are combined and 1% IsoVitaleX Enrichment (BD #211876) was added to the solution). Strains were incubated at 36° C. and 5% CO2 to allow growth of colonies, 24 hours before inoculum preparation. 2-fold serial dilutions of test compounds were conducted in a 96 well plate with a final volume of 75 μL per well at 2-fold the final desired concentration in Fastidious broth (Remel #R07664). For preparation of assay inoculum, a direct suspension was prepared by aseptically swabbing 10-15 colonies from agar plates into culture tubes containing 2 mL of fresh sterile saline. After the dilution plates were set up, direct suspensions were then diluted in a cuvette containing sterile saline and the optical density was measured at 600 nm. Inocula were diluted such that 75 μL of this culture in Fastidious broth results in a starting bacterial concentration of 5×10^5 CFU/mL when added to the dilution plates. The plates were incubated for ˜24 hours at 36° C. and 5% CO2.

Usually EC50 stands for the concentration that produces a half-maximal response. Higher therefore signals a need for much substance. As to `O=C(NCCCN1CCN(C(=O)NC(C(=O)N[C@H]2Cc3ccc(F)c(C(=O)O)c3OB2O)c2cc(F)c(O)c(O)c2Cl)C(=O)C1=O)c1ccncc1` (stereo partly drawn) [Example 205, (3R)-3-(2-(2-chloro-5-fluoro-3,4-dihydroxyphenyl)-2-(4-(3-(isonicotinamido)propyl)-2,3-dioxopiperazine-1-carboxamido)acetamido)-7-fluoro-2-hydroxy-3,4-dihydro-2H-benzo[e][1,2]oxaborinine-8-carboxylic acid], the MIC with N. gonorrhoeae WHO G was 4 to 8 µg/mL (≈ 5.37 to 10.7 µM); with P. aeruginosa ATCC 27853, under 1 µg/mL; in test [1] it was under 1 µg/mL; in the test on N. gonorrhoeae WHO Z, 16 to 32 µg/mL (≈ 21.5 to 43 µM); in test [2], 16 to 32 µg/mL (≈ 21.5 to 43 µM); with N. gonorrhoeae MS11, 4 to 8 µg/mL (≈ 5.37 to 10.7 µM). Also, the MIC in the test with N. gonorrhoeae CDC-0197 was 16 to 32 µg/mL (≈ 21.5 to 43 µM); in [4], under 1 µg/mL; in the test with A. baumannii CDC-0045, under 1 µg/mL; in the test with N. gonorrhoeae FA1090 it was 1 to 2 µg/mL (≈ 1.34 to 2.69 µM); in the test with A. baumannii ATCC 19606 it was under 1 µg/mL; in test [6], under 1 µg/mL. Besides, in the test with N. gonorrhoeae WHO L, the MIC is over 64 µg/mL. The same compound gave an EC50 in test [3] of under 10 µM. Besides, in test [5], the IC50 is under 10 µM.

For `O=C(NCCCN1CCN(C(=O)NC(C(=O)N[C@H]2Cc3ccc(F)c(C(=O)O)c3OB2O)c2cc(F)c(O)c(O)c2Cl)C(=O)C1=O)Nc1cccc(O)c1` (stereo partly drawn) [Example 206, (3R)-3-(2-(2-chloro-5-fluoro-3,4-dihydroxyphenyl)-2-(4-(3-(3-(3-hydroxyphenyl)ureido)propyl)-2,3-dioxopiperazine-1-carboxamido)acetamido)-7-fluoro-2-hydroxy-3,4-dihydro-2H-benzo[e][1,2]oxaborinine-8-carboxylic acid], the MIC in the test on N. gonorrhoeae WHO G is 4 to 8 µg/mL (≈ 5.16 to 10.3 µM); in the test on P. aeruginosa ATCC 27853, 2 to 4 µg/mL (≈ 2.58 to 5.16 µM); in test [1], 2 to 4 µg/mL (≈ 2.58 to 5.16 µM); in the test with N. gonorrhoeae WHO Z, 16 to 32 µg/mL (≈ 20.6 to 41.3 µM); in test [2], 16 to 32 µg/mL (≈ 20.6 to 41.3 µM); in the test with N. gonorrhoeae MS11, 16 to 32 µg/mL (≈ 20.6 to 41.3 µM). The MIC in the test on N. gonorrhoeae CDC-0197 is 16 to 32 µg/mL (≈ 20.6 to 41.3 µM); in test [4], under 1 µg/mL; in the test on A. baumannii CDC-0045, under 1 µg/mL; in the test on N. gonorrhoeae FA1090 it was 1 to 2 µg/mL (≈ 1.29 to 2.58 µM); with A. baumannii ATCC 19606, under 1 µg/mL; in [6], under 1 µg/mL. Moreover, the MIC in the test with N. gonorrhoeae WHO L is over 64 µg/mL. Further, the EC50 in test [3] is under 10 µM. In [5], the IC50 is under 10 µM.

Turning to `O=C(NCCCN1CCN(C(=O)N[C@@H](C(=O)N[C@H]2Cc3ccc(F)c(C(=O)O)c3OB2O)c2cc(F)c(O)c(O)c2Cl)C(=O)C1=O)c1cccnc1` [Example 210, (R)-3-((R)-2-(2-chloro-5-fluoro-3,4-dihydroxyphenyl)-2-(4-(3-(nicotinamido)propyl)-2,3-dioxopiperazine-1-carboxamido)acetamido)-7-fluoro-2-hydroxy-3,4-dihydro-2H-benzo[e][1,2]oxaborinine-8-carboxylic acid], the MIC was 4 to 8 µg/mL (≈ 5.37 to 10.7 µM) in the test on N. gonorrhoeae WHO G; 2 to 4 µg/mL (≈ 2.69 to 5.37 µM) in the test on P. aeruginosa ATCC 27853; under 1 µg/mL in test [1]; 16 to 32 µg/mL (≈ 21.5 to 43 µM) with N. gonorrhoeae WHO Z; 16 to 32 µg/mL (≈ 21.5 to 43 µM) in test [2]; 16 to 32 µg/mL (≈ 21.5 to 43 µM) with N. gonorrhoeae MS11. Also, the MIC was over 64 µg/mL in the test with N. gonorrhoeae CDC-0197; under 1 µg/mL in [4]; under 1 µg/mL with A. baumannii CDC-0045; under 1 µg/mL with N. gonorrhoeae FA1090; under 1 µg/mL in the test on A. baumannii ATCC 19606; under 1 µg/mL in [6]. Further, the MIC in the test with N. gonorrhoeae WHO L was over 64 µg/mL. This compound also gave an EC50 in [3] of under 10 µM. Also, the IC50 in [5] was under 10 µM.
